According to ChEMBL document CHEMBL1201862, “PubChem BioAssay data set” (2004):
Activity calls are given as the source filed them.

Assays:
[1] = tested on: Staphylococcus aureus; assay: Inhibitors of Bacterial Quorum Sensing Structure Activity Relationship (SAR) Analysis: Dose Response Assay. [Related pubchem assays: 700, 527 ]; type: functional, organism-based
[2] = Cytotoxicity screening for potential Inhibitors of Bacterial Capsule Biogenesis. [Related pubchem assays (depositor defined):AID488970]; type: functional
[3] = molecular target: T1, Endoribonuclease toxin MazF (Escherichia coli K-12, UniProt P0AE70); assay: fluorescent RNA oligo signal without MazF, dose response, counter-screen for MazEF activator project, biochemical, fluorescence, single-stranded RNase substrate (AID 588502); type: functional
T1 sequence (P0AE70 whole entry): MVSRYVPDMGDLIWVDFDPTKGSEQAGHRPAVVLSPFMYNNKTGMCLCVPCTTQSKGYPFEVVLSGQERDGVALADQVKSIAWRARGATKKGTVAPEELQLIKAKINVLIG

[4] = molecular target: UDP-galactopyranose mutase (Mycobacterium tuberculosis, UniProt P9WIQ1); assay: Inhibitors of Mycobacterium tuberculosis UDP-galactopyranose mutase (UGM) enzyme Measured in Biochemical System Using Plate Reader - 2105-02_Inhibitor_Dose_CherryPick_Activity. [Related pubchem assays (depositor defined):AID504439]
UDP-galactopyranose mutase, sequence (P9WIQ1 whole entry): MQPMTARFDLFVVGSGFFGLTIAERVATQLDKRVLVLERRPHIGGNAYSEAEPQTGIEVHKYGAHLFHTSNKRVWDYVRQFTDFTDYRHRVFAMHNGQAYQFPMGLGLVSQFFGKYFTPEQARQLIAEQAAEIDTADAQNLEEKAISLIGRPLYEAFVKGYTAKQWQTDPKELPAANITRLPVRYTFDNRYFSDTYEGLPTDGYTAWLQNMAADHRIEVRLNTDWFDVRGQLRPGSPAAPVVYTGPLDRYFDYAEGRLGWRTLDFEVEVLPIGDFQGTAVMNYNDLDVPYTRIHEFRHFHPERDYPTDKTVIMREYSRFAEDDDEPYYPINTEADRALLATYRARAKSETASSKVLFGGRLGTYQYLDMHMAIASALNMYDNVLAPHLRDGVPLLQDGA

[5] = tested on: HeLa; assay: HeLa cell cytotoxicity, dose response, cytotoxicity control, 24 h, cherry-picked samples (AID 504726); type: functional, cell-based; settings: Homo sapiens;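 further: potency for cytotoxicity as loss of luminescence signal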
[6] = molecular target: T2, Voltage-dependent T-type calcium channel subunit alpha-1H (Homo sapiens, UniProt O95180); type: functional
T2 sequence (O95180 whole entry): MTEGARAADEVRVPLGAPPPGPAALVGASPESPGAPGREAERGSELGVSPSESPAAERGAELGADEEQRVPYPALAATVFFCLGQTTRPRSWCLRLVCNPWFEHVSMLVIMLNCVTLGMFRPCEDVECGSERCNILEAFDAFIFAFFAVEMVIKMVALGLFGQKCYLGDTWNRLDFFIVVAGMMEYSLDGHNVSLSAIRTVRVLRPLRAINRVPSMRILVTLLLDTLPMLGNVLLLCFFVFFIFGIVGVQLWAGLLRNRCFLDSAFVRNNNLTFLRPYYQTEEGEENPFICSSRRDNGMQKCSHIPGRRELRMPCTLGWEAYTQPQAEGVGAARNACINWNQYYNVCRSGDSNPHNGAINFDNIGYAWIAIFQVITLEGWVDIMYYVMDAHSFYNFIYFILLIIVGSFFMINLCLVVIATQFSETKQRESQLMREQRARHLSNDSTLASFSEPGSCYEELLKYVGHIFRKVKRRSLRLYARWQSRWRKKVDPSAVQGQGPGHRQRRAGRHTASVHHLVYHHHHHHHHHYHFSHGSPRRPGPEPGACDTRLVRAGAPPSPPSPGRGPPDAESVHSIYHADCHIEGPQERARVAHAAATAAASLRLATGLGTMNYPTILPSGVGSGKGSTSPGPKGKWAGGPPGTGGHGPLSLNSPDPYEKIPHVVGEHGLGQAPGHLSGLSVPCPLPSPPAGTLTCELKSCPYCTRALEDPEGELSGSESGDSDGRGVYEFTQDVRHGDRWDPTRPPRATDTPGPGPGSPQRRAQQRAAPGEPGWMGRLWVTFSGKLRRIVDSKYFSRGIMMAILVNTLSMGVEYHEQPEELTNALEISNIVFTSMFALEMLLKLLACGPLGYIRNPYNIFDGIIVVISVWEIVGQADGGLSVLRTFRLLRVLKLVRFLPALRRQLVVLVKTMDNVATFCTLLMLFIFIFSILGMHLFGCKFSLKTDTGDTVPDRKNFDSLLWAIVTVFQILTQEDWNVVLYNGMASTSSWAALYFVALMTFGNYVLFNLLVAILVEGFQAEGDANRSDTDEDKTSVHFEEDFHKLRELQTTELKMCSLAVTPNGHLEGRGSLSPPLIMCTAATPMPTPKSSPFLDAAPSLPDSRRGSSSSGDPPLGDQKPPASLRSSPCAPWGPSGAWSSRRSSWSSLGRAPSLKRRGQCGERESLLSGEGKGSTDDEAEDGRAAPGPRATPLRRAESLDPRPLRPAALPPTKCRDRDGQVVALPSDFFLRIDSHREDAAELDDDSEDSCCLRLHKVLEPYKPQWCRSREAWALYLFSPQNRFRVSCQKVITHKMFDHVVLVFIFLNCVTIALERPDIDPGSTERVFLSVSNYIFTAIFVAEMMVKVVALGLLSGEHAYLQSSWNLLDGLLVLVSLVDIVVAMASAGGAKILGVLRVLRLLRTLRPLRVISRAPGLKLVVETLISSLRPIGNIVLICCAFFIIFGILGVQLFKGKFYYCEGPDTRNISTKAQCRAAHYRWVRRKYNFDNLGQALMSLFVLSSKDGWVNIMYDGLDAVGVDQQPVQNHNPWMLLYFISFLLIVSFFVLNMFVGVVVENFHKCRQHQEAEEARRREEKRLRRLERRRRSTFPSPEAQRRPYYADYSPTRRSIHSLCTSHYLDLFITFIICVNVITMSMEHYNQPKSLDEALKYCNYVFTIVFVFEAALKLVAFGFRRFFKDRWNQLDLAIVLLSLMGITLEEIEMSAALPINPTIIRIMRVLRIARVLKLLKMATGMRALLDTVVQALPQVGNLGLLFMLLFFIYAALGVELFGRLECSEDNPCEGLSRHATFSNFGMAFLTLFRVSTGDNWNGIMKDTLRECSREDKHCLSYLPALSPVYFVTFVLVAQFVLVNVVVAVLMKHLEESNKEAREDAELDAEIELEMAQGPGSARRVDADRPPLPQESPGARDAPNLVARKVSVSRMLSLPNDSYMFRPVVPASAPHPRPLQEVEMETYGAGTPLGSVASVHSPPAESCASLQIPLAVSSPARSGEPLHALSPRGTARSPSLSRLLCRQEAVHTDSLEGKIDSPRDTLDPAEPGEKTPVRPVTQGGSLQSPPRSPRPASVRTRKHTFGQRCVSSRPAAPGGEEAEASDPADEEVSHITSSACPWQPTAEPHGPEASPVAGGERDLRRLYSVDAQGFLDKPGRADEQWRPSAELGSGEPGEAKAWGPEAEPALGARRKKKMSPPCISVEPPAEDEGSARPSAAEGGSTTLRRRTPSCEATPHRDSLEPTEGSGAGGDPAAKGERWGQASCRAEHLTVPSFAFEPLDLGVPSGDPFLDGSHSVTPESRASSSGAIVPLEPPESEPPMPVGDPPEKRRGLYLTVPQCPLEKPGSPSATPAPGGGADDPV

[7] = molecular target: T2, Voltage-dependent T-type calcium channel subunit alpha-1H; assay: Inhibitors of T-Type Calcium Channels. [Related pubchem assays (depositor defined):AID449739, AID463087, AID489005, AID493041, AID504579, AID504584, AID504619, AID504628]; type: functional
[8] = molecular target: T1, Endoribonuclease toxin MazF; assay: MazF toxin RNase activators, dose response, biochemical, fluorescence, single-stranded RNA substrate, uHTS hits (AID 588481); type: functional
[9] = molecular target: ORF 73 (Human herpesvirus 8, UniProt O40947); assay: inhibitors of C-LANA binding to LBS DNA, dose response, biochemical, fluorescence polarization, cherry-picked samples (AID 504725); parameters: species or system Human gammaherpesvirus 8;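 further: fluorescence polarization of a labeled DNA duplex reporting LANA DNA binding; potency is for inhibitors that block LANA binding to the DNA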
ORF 73, sequence (O40947 whole entry, the tested form may be a part): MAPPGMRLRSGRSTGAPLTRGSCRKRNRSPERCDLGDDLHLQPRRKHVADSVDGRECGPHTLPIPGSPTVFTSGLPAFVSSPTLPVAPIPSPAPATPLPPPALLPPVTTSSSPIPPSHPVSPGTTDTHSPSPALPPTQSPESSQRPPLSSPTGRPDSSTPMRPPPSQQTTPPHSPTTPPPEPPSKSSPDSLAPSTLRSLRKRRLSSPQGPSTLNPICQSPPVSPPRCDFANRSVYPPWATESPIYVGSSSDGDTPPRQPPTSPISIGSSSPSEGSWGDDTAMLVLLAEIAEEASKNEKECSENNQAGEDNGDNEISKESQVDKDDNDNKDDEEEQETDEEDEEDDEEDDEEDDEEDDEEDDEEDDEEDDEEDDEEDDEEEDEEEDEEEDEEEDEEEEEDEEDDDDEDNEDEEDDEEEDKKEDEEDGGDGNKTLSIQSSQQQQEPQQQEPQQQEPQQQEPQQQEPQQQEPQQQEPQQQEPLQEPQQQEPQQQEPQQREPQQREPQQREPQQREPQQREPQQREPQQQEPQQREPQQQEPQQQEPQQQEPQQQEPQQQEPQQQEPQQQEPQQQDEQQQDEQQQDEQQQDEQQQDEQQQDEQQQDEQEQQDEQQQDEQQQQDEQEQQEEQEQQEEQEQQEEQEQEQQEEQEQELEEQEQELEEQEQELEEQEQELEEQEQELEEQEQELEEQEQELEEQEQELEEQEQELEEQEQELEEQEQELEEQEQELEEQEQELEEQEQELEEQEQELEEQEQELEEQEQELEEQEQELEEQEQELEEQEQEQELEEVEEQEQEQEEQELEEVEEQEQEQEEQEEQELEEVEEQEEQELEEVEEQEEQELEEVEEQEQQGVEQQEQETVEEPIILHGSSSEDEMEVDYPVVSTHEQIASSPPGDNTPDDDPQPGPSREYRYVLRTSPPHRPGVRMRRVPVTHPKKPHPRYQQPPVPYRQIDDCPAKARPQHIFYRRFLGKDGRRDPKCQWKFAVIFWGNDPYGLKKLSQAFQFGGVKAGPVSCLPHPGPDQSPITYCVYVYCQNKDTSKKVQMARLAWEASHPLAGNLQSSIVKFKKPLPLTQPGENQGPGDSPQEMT

[10] = molecular target: T3, Nucleotide-binding oligomerization domain-containing protein 1 (Homo sapiens, UniProt Q9Y239); assay: NOD1 signaling inhibitors, SAR follow-up, revised (AID 2333); type: functional
T3 sequence (Q9Y239 whole entry): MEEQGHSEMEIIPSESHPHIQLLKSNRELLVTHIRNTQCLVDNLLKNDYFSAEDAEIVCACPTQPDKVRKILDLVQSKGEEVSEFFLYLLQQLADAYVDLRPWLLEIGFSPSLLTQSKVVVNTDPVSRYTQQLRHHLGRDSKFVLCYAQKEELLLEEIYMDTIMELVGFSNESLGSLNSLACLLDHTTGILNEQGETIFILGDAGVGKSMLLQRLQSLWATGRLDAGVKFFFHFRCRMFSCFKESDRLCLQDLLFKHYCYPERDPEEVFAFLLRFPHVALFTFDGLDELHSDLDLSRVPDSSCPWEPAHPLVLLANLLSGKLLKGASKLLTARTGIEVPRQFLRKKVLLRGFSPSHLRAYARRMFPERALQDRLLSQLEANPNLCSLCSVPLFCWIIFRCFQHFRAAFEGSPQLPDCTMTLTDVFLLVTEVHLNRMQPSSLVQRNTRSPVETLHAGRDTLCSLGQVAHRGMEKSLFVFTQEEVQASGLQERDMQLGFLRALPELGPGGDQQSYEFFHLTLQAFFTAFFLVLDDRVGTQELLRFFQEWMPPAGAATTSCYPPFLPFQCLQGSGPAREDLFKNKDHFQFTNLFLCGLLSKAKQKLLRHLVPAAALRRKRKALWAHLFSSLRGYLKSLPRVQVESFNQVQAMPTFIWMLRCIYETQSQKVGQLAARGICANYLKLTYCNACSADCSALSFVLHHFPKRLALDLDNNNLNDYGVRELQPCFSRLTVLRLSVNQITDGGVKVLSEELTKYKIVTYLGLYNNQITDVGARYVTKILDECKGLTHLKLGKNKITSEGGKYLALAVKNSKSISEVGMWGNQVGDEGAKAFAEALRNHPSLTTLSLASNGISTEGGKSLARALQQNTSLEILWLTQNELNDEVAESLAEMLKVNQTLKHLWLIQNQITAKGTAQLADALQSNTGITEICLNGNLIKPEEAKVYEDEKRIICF

[11] = molecular target: T4, Interleukin-8 (Homo sapiens, UniProt P10145); assay: SAR analysis of Tumor necrosis factor alpha (TNF-alpha) induced IL-8 secretion in MCF-7/NOD1 cells - Set 2. [Related pubchem assays (depositor defined):AID1575, AID2250, AID2260]; type: functional, cell-based
T4 sequence (P10145 whole entry): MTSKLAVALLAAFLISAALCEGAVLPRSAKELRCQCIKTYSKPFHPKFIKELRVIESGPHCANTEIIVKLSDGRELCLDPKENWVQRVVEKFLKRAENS

[12] = molecular target: T3, Nucleotide-binding oligomerization domain-containing protein 1; assay: SAR analysis of NF-kappaB dependent luciferase using DAP as an inducer - Set 2. [Related pubchem assays (depositor defined):AID1566, AID1575, AID1578, AID1579, AID1849, AID1852, AID2264]; type: functional
[13] = molecular target: Tumor necrosis factor (Homo sapiens, UniProt P01375); assay: TNFa-triggered NF-kB activation inhibitors, SAR follow-up, cell-based, revised (AID 2337); type: functional
Tumor necrosis factor, sequence (P01375 whole entry, the tested form may be a part): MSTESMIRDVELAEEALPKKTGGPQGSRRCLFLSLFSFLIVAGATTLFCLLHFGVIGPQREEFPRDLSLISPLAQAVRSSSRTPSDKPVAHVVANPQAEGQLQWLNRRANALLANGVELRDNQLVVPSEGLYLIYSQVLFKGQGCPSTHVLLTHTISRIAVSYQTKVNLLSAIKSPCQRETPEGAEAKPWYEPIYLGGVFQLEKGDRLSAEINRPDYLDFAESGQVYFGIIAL

[14] = molecular target: Nucleotide-binding oligomerization domain-containing protein 2 (Homo sapiens, UniProt Q9HC29); assay: PubChem AID 2334; type: functional
[15] = molecular target: T4, Interleukin-8; assay: SAR analysis of GM-Tri-DAP induced IL-8 secretion in MCF-7/NOD1 cells - Set 2. [Related pubchem assays (depositor defined):AID1575, AID1578, AID2333]; type: functional, cell-based
[16] = tested on: HEK293; assay: cells; settings: Homo sapiens;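 further: cells exposed to compound for 14 hours overnight before viability readout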
[17] = molecular target: Scavenger receptor class B member 1 (Mus musculus, UniProt Q61009); assay: inhibitors of SR-BI mediated HDL lipid uptake, dose response, ldlA[mSR-BI] cells, fluorescence, cherry pick (AID 493194); type: functional, cell-based;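 further: cellular uptake of fluorescent DiI-labeled HDL measured as cell fluorescence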
[18] = cytotoxicity in HEK-293T cells, dose response, cytotoxicity control for TCR NF-kB inhibitor project, luminescence, T-cell screen hits (AID 489026); type: functional, cell-based;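 further: cells exposed to compound about 14 hours before the viability readout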
[19] = molecular target: T5, Estrogen receptor (Homo sapiens, UniProt P03372);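 further: potency for inhibiting coactivator peptide recruitment to the receptor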
T5 sequence (P03372 whole entry): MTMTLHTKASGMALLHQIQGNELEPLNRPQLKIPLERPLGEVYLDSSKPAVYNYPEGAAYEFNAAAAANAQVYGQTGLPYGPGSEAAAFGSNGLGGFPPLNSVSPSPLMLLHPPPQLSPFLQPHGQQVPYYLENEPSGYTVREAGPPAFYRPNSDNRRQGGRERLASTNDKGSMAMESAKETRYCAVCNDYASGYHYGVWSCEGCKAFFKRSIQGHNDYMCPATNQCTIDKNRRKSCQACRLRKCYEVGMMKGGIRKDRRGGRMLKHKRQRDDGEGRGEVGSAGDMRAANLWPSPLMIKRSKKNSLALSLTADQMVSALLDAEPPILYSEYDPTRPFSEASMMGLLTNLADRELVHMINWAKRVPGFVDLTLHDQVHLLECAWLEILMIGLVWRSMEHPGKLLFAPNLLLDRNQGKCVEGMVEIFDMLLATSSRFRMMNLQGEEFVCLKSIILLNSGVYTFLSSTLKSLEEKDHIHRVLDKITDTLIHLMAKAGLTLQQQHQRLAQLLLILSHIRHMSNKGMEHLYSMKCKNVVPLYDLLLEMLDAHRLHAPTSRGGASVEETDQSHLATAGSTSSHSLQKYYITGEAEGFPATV

[20] = molecular target: T6, Estrogen receptor beta (Homo sapiens, UniProt Q92731); assay: ERβ–SRC-3 coactivator interaction inhibitors, confirmation, orthogonal assay, biochemical, ELISA, streptavidin-HRP readout (AID 1060)
T6 sequence (Q92731 whole entry): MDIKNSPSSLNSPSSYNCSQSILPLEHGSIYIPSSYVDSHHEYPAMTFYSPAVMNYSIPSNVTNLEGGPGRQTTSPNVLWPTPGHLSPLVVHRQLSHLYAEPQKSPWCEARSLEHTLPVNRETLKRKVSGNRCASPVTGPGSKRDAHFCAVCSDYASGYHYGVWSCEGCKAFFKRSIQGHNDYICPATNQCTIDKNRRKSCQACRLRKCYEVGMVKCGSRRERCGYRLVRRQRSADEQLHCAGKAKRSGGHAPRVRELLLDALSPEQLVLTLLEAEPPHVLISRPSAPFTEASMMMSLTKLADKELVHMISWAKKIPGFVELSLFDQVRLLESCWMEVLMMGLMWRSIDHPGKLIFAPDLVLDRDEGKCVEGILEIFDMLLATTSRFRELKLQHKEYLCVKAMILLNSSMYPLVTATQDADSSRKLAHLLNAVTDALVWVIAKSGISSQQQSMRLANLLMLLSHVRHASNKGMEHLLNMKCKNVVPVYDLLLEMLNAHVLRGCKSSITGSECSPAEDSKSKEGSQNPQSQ

[21] = molecular target: T6, Estrogen receptor beta
[22] = molecular target: Eukaryotic translation initiation factor 4H (Homo sapiens, UniProt Q15056); assay: human eIF4H binding inhibitors, primary screen, translation initiation inhibitor project, biochemical, uHTS, fluorescence polarization (AID 2012)
[23] = molecular target: Polyadenylate-binding protein 1 (Homo sapiens, UniProt P11940); assay: PABP poly(A) RNA binding inhibitors, primary screen, biochemical, fluorescence polarization, uHTS (AID 2014)
[24] = molecular target: Cyclin-dependent kinase 5/CDK5 activator 1 (Homo sapiens, UniProt Q00535); assay: CDK5/p35 kinase inhibitors, dose response, biochemical, cherry-picked samples, set 2 (AID 504545)
[25] = molecular target: Cytochrome P450 2C9 (Homo sapiens, UniProt P11712); settings: Potency
[26] = molecular target: Nonstructural protein 1 (Influenza A virus, UniProt Q194T2); type: functional, Influenza A virus (A/California/07/2009(H1N1))
[27] = molecular target: Keap1/Nrf2 (Homo sapiens, UniProt Q14145); assay: Keap1-Nrf2 protein-protein interaction inhibitors, dose response, biochemical, fluorescence polarization, cherry-picked samples (AID 588683)
[28] = molecular target: Cystic fibrosis transmembrane conductance regulator/Golgi-associated PDZ and coiled-coil motif-containing protein (Homo sapiens, UniProt P13569+Q9HD26); assay: CAL PDZ peptide-binding inhibitors, dose response, biochemical, fluorescence polarization, Cerulean-tagged CAL PDZ, cherry-picks (AID 504773)
[29] = molecular target: Signal transducer and activator of transcription 3 (Homo sapiens, UniProt P40763); assay: STAT3 activators, late-stage profile, late-stage follow-up, cell-based, STAT1 reporter, BCL3 qPCR, cytotoxicity, panel member STAT3 Activation (AID 2049)
[30] = molecular target: T7, Kappa-type opioid receptor (Homo sapiens, UniProt P41145); assay: SAR analysis of small molecule antagonists of the kappa opioid receptor via a luminescent beta-arrestin assay - Set 6. [Related pubchem assays (depositor defined):AID1777, AID1778, AID1785, AID1786, AID1966, AID2133, AID2136, AID2285]; type: functional
T7 sequence (P41145 whole entry): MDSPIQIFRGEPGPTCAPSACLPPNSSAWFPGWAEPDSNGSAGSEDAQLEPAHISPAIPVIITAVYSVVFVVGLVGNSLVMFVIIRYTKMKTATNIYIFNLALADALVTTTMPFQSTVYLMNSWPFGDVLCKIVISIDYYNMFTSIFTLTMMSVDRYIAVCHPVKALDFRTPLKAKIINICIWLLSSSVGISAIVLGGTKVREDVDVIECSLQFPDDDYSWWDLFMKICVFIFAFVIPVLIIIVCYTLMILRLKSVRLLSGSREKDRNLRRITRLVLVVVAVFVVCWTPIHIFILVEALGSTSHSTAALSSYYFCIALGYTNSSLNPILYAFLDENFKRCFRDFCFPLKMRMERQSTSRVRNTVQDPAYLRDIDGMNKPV

[31] = molecular target: T7, Kappa-type opioid receptor; assay: SAR analysis of small molecule antagonists of the kappa opioid receptor via a luminescent beta-arrestin assay - Set 4. [Related pubchem assays (depositor defined):AID1777, AID1778, AID1785, AID1786, AID1966, AID2133, AID2136, AID2285]; type: functional
[32] = molecular target: Delta-type opioid receptor (Homo sapiens, UniProt P41143); assay: SAR Analysis of Antagonists of the DOR Receptor using an Image-Based Assay - Set 3. [Related pubchem assays (depositor defined):AID1777, AID1785]; type: functional;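 further: U2OS cells expressing DOR1 and beta-arrestin GFP stimulated with 100 nM SNC80; imaging of GFP-tagged beta-arrestin moving into spots after receptor activation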
[33] = molecular target: T7, Kappa-type opioid receptor; assay: SAR analysis of Antagonists of the Kappa Opioid Receptor (KOR) using an Image-Based Assay - Set 4. [Related pubchem assays (depositor defined):AID1777, AID1785]; type: functional
[34] = molecular target: Mu-type opioid receptor (Homo sapiens, UniProt P35372); assay: SAR Analysis of Antagonists of the MOR Receptor using an Image-Based Assay - Set 3. [Related pubchem assays (depositor defined):AID1777, AID1785, AID1786, AID1966, AID2133, AID2136, AID2284, AID2285, AID2420]; type: functional

## CCOC(=O)c1c(C)oc2cc(Br)c(O)c(Br)c12
[1]
  IC50: 0.779 µM (active)

## O=C(NCc1cc([N+](=O)[O-])ccc1O)c1cccnc1Sc1ccccc1
[2]
  CC50: > 100 µM (active)

## Nc1c(C(=O)Nc2ccccc2F)sc2nc(Cc3ccccc3)cc(C(F)(F)F)c12
[3]
  EC50: > 99 µM (inactive)
[4]
  AC50: 98.6 µM (active)
[5]
  AC50: 95.9 µM (active)
[6]
  EC50: 2.71 µM (active)
[7]
  EC50: 1.9 µM (active)
[8]
  EC50: 17.4 µM (active)
[9]
  AC50: 16.1 µM (active)

## Nc1nc2ccccc2n1CCOc1ccc(Cl)cc1
[10]
  IC50: 12.7 µM (active)
[11]
  IC50: > 25 µM (inactive)
[12]
  IC50: > 25 µM (inactive)
[13]
  IC50: > 20 µM (inactive)
[14]
  IC50: > 20 µM (inactive)
[15]
  IC50: 8.6 µM (active)
[16]
  IC50: > 20 µM (inactive)

## Cc1c(C(=O)OCc2ccccc2)[nH]c2c1C(=O)CC(c1ccco1)C2 (configuration not stated)
[17]
  AC50: 0.258 µM (active)
[18]
  IC50: > 80 µM (inactive)
[19]
  IC50: 23 µM (active)
[20]
  IC50: 9.51 µM (not active)
[21]
  IC50: 15.1 µM (active)

## CCOc1ccc2nc(SCC(=O)NC(=O)NCc3ccco3)[nH]c2c1
[22]
  IC50: 13.3 µM (active)
[23]
  IC50: 62.3 µM (active)

## COc1ccc2nc3c(cc2c1)c(NC(=O)C1CCCO1)nn3CC(C)C (configuration not stated)
[24]
  AC50: 31.2 µM (active)

## CCCCCC[C@H]1C(=O)O[C@@H](C)[C@H](NC(=O)c2cccc(NC=O)c2O)C(=O)O[C@@H](C)[C@@H]1OC(=O)CC(C)C
[25]
  AC50: 31.6 µM (inconclusive)

## CCNc1ccc2noc3c2c1C(=O)c1ccccc1-3
[26]
  IC50: 62 µM (active)
[4]
  AC50: 0.609 µM (active)
[5]
  AC50: 42.9 µM (active)
[27]
  AC50: 0.866 µM (active)
[28]
  AC50: 4.08 µM (active)
[9]
  AC50: 1.03 µM (active)

## COc1cc(NC(=O)c2cc(C)on2)c(OC)cc1Cl
[29]
  EC50: 6.98 µM (active)

## CC(C)N(CCNC(=O)c1ccc(CNS(=O)(=O)c2ccc(-c3ccccc3)cc2)cc1)Cc1ccccc1
[30]
  IC50: > 20 µM (inactive)
[31]
  IC50: 1.33 µM (active)
[32]
  IC50: > 32 µM (inactive)
[33]
  IC50: 0.432 µM (active)
[34]
  IC50: > 32 µM (inactive)
